According to the NIST ThermoML archive (doi:10.1016/j.fluid.2014.04.002):
Numbers after ± are expanded uncertainties.

Key:
[1] = 101 kPa, Liquid; for viscosity: Concentric cylinders viscometry; for mass density: Vibrating tube method
[2] = refractive index (Na D-line) (dimensionless); settings: 101.33 kPa, Liquid, Standard Abbe refractometry
[3] = xn = mol fraction of the nth substance listed; settings: 101 kPa, Liquid, x2 = 0; for viscosity: Concentric cylinders viscometry; for mass density: Vibrating tube method
[4] = refractive index (Na D-line) (dimensionless); xn = mol fraction of the nth substance listed; settings: 101 kPa, Liquid, Standard Abbe refractometry, x2 = 0

Structure (SMILES): CCOC(=O)C(C)O (racemic) [DL-ethyl lactate]
- viscosity ([1]; 288.15 K): 3.207 ± 0.062 mPa·s
- mass density ([1]; 288.15 K): 1039.28 ± 0.92 kg/m3
- viscosity ([1]; 293.15 K): 2.75 ± 0.053 mPa·s
- mass density ([1]; 293.15 K): 1033.84 ± 0.91 kg/m3
- viscosity ([1]; 298.15 K): 2.39 ± 0.046 mPa·s
- mass density ([1]; 298.15 K): 1028.39 ± 0.9 kg/m3
- viscosity ([1]; 303.15 K): 2.097 ± 0.041 mPa·s
- mass density ([1]; 303.15 K): 1022.92 ± 0.88 kg/m3
- viscosity ([1]; 308.15 K): 1.858 ± 0.036 mPa·s
- mass density ([1]; 308.15 K): 1017.42 ± 0.87 kg/m3
- viscosity ([1]; 313.15 K): 1.658 ± 0.032 mPa·s
- mass density ([1]; 313.15 K): 1011.9 ± 0.86 kg/m3
- viscosity ([1]; 318.15 K): 1.491 ± 0.029 mPa·s
- mass density ([1]; 318.15 K): 1006.36 ± 0.85 kg/m3
- viscosity ([1]; 323.15 K): 1.349 ± 0.026 mPa·s
- mass density ([1]; 323.15 K): 1000.79 ± 0.84 kg/m3
- refractive index ([2]; 288.15 K): 1.41537 ± 0.00051
- refractive index ([2]; 293.15 K): 1.41307 ± 0.00051
- refractive index ([2]; 298.15 K): 1.41076 ± 0.00051
- refractive index ([2]; 303.15 K): 1.40843 ± 0.00051
- refractive index ([2]; 308.15 K): 1.4061 ± 0.00051
- refractive index ([2]; 313.15 K): 1.40374 ± 0.00051
- refractive index ([2]; 318.15 K): 1.40136 ± 0.00051
- refractive index ([2]; 323.15 K): 1.39898 ± 0.00051

Structure (SMILES): CC(O)CO (stereo unspecified) [1,2-propanediol]
- viscosity ([1]; 288.15 K): 82.54 ± 1.5 mPa·s
- mass density ([1]; 288.15 K): 1039.87 ± 0.26 kg/m3
- viscosity ([1]; 293.15 K): 56.62 ± 0.97 mPa·s
- mass density ([1]; 293.15 K): 1036.25 ± 0.26 kg/m3
- viscosity ([1]; 298.15 K): 44.03 ± 0.76 mPa·s
- mass density ([1]; 298.15 K): 1032.59 ± 0.26 kg/m3
- viscosity ([1]; 303.15 K): 33.16 ± 0.57 mPa·s
- mass density ([1]; 303.15 K): 1028.88 ± 0.25 kg/m3
- viscosity ([1]; 308.15 K): 25.45 ± 0.44 mPa·s
- mass density ([1]; 308.15 K): 1025.14 ± 0.25 kg/m3
- viscosity ([1]; 313.15 K): 19.85 ± 0.34 mPa·s
- mass density ([1]; 313.15 K): 1021.35 ± 0.25 kg/m3
- viscosity ([1]; 318.15 K): 15.73 ± 0.27 mPa·s
- mass density ([1]; 318.15 K): 1017.52 ± 0.24 kg/m3
- viscosity ([1]; 323.15 K): 12.64 ± 0.22 mPa·s
- mass density ([1]; 323.15 K): 1013.66 ± 0.24 kg/m3
- refractive index ([2]; 288.15 K): 1.43437 ± 0.00037
- refractive index ([2]; 293.15 K): 1.4327 ± 0.00037
- refractive index ([2]; 298.15 K): 1.43102 ± 0.00037
- refractive index ([2]; 303.15 K): 1.42934 ± 0.00037
- refractive index ([2]; 308.15 K): 1.42764 ± 0.00037
- refractive index ([2]; 313.15 K): 1.42591 ± 0.00037
- refractive index ([2]; 318.15 K): 1.4242 ± 0.00037
- refractive index ([2]; 323.15 K): 1.42246 ± 0.00037

Structure (SMILES): CC(O)CO (stereo unspecified) [1,2-propanediol] + CCOC(=O)C(C)O
- viscosity ([3]; 288.15 K): 82.54 ± 1.5 mPa·s
- mass density ([3]; 288.15 K): 1039.87 ± 0.26 kg/m3
- viscosity ([3]; 293.15 K): 56.62 ± 0.97 mPa·s
- mass density ([3]; 293.15 K): 1036.25 ± 0.26 kg/m3
- viscosity ([3]; 298.15 K): 44.03 ± 0.76 mPa·s
- mass density ([3]; 298.15 K): 1032.59 ± 0.26 kg/m3
- viscosity ([3]; 303.15 K): 33.16 ± 0.57 mPa·s
- mass density ([3]; 303.15 K): 1028.88 ± 0.25 kg/m3
- viscosity ([3]; 308.15 K): 25.45 ± 0.44 mPa·s
- mass density ([3]; 308.15 K): 1025.14 ± 0.25 kg/m3
- viscosity ([3]; 313.15 K): 19.85 ± 0.34 mPa·s
- mass density ([3]; 313.15 K): 1021.35 ± 0.25 kg/m3
- viscosity ([3]; 318.15 K): 15.73 ± 0.27 mPa·s
- mass density ([3]; 318.15 K): 1017.52 ± 0.24 kg/m3
- viscosity ([3]; 323.15 K): 12.64 ± 0.22 mPa·s
- mass density ([3]; 323.15 K): 1013.66 ± 0.24 kg/m3
- refractive index ([4]; 288.15 K): 1.43437 ± 0.00037
- refractive index ([4]; 293.15 K): 1.4327 ± 0.00037
- refractive index ([4]; 298.15 K): 1.43102 ± 0.00037
- refractive index ([4]; 303.15 K): 1.42934 ± 0.00037
- refractive index ([4]; 308.15 K): 1.42764 ± 0.00037
- refractive index ([4]; 313.15 K): 1.42591 ± 0.00037
- refractive index ([4]; 318.15 K): 1.4242 ± 0.00037
- refractive index ([4]; 323.15 K): 1.42246 ± 0.00037

Structure (SMILES): COCCOCCOCCOCCOC [2,5,8,11,14-pentaoxapentadecane]
- viscosity ([1]; 288.15 K): 4.353 ± 0.075 mPa·s
- mass density ([1]; 288.15 K): 1016.7 ± 0.24 kg/m3
- viscosity ([1]; 293.15 K): 3.795 ± 0.065 mPa·s
- mass density ([1]; 293.15 K): 1012.06 ± 0.24 kg/m3
- viscosity ([1]; 298.15 K): 3.348 ± 0.058 mPa·s
- mass density ([1]; 298.15 K): 1007.42 ± 0.23 kg/m3
- viscosity ([1]; 303.15 K): 2.983 ± 0.051 mPa·s
- mass density ([1]; 303.15 K): 1002.79 ± 0.23 kg/m3
- viscosity ([1]; 308.15 K): 2.668 ± 0.046 mPa·s
- mass density ([1]; 308.15 K): 998.153 ± 0.23 kg/m3
- viscosity ([1]; 313.15 K): 2.407 ± 0.042 mPa·s
- mass density ([1]; 313.15 K): 993.523 ± 0.23 kg/m3
- viscosity ([1]; 318.15 K): 2.185 ± 0.038 mPa·s
- mass density ([1]; 318.15 K): 988.892 ± 0.23 kg/m3
- viscosity ([1]; 323.15 K): 2.003 ± 0.035 mPa·s
- mass density ([1]; 323.15 K): 984.262 ± 0.23 kg/m3
- refractive index ([2]; 288.15 K): 1.43553 ± 0.00037
- refractive index ([2]; 293.15 K): 1.43338 ± 0.00037
- refractive index ([2]; 298.15 K): 1.43123 ± 0.00037
- refractive index ([2]; 303.15 K): 1.42906 ± 0.00037
- refractive index ([2]; 308.15 K): 1.42697 ± 0.00037
- refractive index ([2]; 313.15 K): 1.42447 ± 0.00037
- refractive index ([2]; 318.15 K): 1.42206 ± 0.00037
- refractive index ([2]; 323.15 K): 1.41985 ± 0.00037
